Reference: article PMC4434603 (Journal of biomolecular screening, 2011)

T1: His-RORα-LBD (Homo sapiens, UniProt P35398)
T1 sequence (P35398 with tags, fused parts or gaps): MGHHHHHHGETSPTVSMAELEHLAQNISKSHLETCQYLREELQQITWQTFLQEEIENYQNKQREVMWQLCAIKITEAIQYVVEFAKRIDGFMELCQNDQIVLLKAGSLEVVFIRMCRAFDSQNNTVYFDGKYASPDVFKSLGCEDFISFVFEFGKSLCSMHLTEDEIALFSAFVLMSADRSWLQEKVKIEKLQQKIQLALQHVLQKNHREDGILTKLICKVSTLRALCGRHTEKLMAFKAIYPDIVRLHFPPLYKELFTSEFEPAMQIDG

T2: Biotin-PGC-1α NR1 peptide (biotin on the N-terminus)
T2 peptide: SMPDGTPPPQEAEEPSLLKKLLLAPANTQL


Experiments:
His-RORα-LBD = biological target: T1, His-RORα-LBD; experiment: HTS LOPAC AlphaScreen screen and compound response curves; assay type: biochemical; conditions: CRC; for EC50: read-out: Final EC50, 50 µM top, 3-fold dilutions, 10 points, triplicate
[1] = biological target: T2, Biotin-PGC-1α NR1 peptide; experiment: AlphaScreen or HTRF

| Molecule | Hill Slope (His-RORα-LBD) | EC50 (His-RORα-LBD) [nM] | EC50 [1] [nM] |
| --- | --- | --- | --- |
| CCCCCCC(C)(C)c1ccc([C@@H]2C[C@H](O)CC[C@H]2CCCO)c(O)c1 [C 1112] | 1.73 | 224 | – |
| CC(=O)[C@H]1CC[C@H]2[C@@H]3CCC4=CC(=O)CC[C@]4(C)[C@H]3CC[C@]12C [P 0130] | 1.07 | 833 | – |
| CC(=O)[C@H]1CCC2C3CC[C@H]4C[C@H](O)CC[C@]4(C)C3CC[C@@]21C (stereo partly drawn) [P 8887] | 0.28 | 331 | – |
| C[C@]12C=CC(=O)C=C1CC[C@@H]1C2=CC[C@]2(C)[C@@H](C(=O)CN3CCN(c4cc(N5CCCC5)nc(N5CCCC5)n4)CC3)CC[C@@H]12.O=C(O)/C=C\C(=O)O [U 5882] | 1.79 | 393 | – |
| His-RORα-LBD (262–523) (domain or fragment) GETSPTVSMAELEHLAQNISKSHLETCQYLREELQQITWQTFLQEEIENYQNKQREVMWQLCAIKITEAIQYVVEFAKRIDGFMELCQNDQIVLLKAGSLEVVFIRMCRAFDSQNNTVYFDGKYASPDVFKSLGCEDFISFVFEFGKSLCSMHLTEDEIALFSAFVLMSADRSWLQEKVKIEKLQQKIQLALQHVLQKNHREDGILTKLICKVSTLRALCGRHTEKLMAFKAIYPDIVRLHFPPLYKELFTSEFEPAMQIDG | – | – | 36 |
